This is an account of results in ChEMBL document CHEMBL1156829 (Proc Natl Acad Sci U S A, 2008).

A word on the EC50: it is the concentration giving half of the maximal effect. By CC50 is commonly meant the concentration at which the toxic effect on the cells reaches its halfway point. Read a low CC50 as harm at low concentration.

Data set [1] has as its system Plasmodium falciparum. The experiment in a line: NOVARTIS: Inhibition of Plasmodium falciparum 3D7 (drug-susceptible) proliferation in erythrocyte-based infection assay. The conditions noted are these: Plasmodium falciparum, 3D7. It is filed as functional, organism-based.
Data set [2] concerns Plasmodium falciparum. The experiment in a line: NOVARTIS: Inhibition of Plasmodium falciparum W2 (drug-resistant) proliferation in erythrocyte-based infection assay. The conditions noted are these: Plasmodium falciparum, W2; read-out: EC50. It is filed as functional, organism-based.
Data set [3] is described as follows: NOVARTIS: Cytotoxicity against human hepatocellular carcinoma cell line (Huh7). It is filed as toxicity, cell-based, Huh-7. The conditions noted are these: Huh7 cells (hepatocellular carcinoma cell line).

As for `CCN1CCN(c2cc(C)c3cc(NC(=O)/C=C/c4ccc(OC)cc4)ccc3n2)CC1`, the figures for the half-maximal effective concentration (EC50) with Plasmodium falciparum [1] and in the data set on Plasmodium falciparum [2] were 0.905 µM and 0.762 µM, respectively. This molecule came in with a CC50 in data set [3] above 10.4 µM.

Consider `CCN1CCN(c2cc(C)c3cc(NC(=O)/C=C/c4cccc(Cl)c4)ccc3n2)CC1`, for which the EC50 in the data set with Plasmodium falciparum [1] was determined as 0.935 µM; in the data set on Plasmodium falciparum [2], 1.01 µM. Besides, the CC50 in data set [3] was above 13.8 µM.

As for `CC(C)C1c2[nH]c3ccccc3c2CCN1C(=O)CCl` (stereo not drawn), the values for the half-maximal effective concentration (EC50) with Plasmodium falciparum [1] and with Plasmodium falciparum [2] were 0.498 µM and 0.377 µM, respectively. The same molecule displayed a CC50 in data set [3] above 10 µM.

Regarding `Cc1c2ccccc2c(C)c2ccccc12`, the concentration for a half-maximal effect (EC50) in the data set with Plasmodium falciparum [1] stood at 0.803 µM; in the data set on Plasmodium falciparum [2] it was 0.827 µM. The midpoint of cytotoxicity in data set [3], the CC50, lay at 21.6 µM.

Turning to `N=c1c2c(n(Cc3cccc(Cl)c3)c3c1CCC3)CCCC2`, the 50% effective concentration (EC50) in the data set with Plasmodium falciparum [1] came out at 0.992 µM; in the data set on Plasmodium falciparum [2] it was 0.378 µM. In data set [3], this molecule yielded a CC50 above 10 µM.

With `CCCCCCCCCCCCn1ccc(=N)cc1`, the values for the 50% effective concentration (EC50) in the data set on Plasmodium falciparum [1] and in the data set with Plasmodium falciparum [2] were 0.321 µM and 0.188 µM, respectively. Besides, the CC50 in data set [3] amounted to 4.99 µM.

Consider `Cc1cccc(C2c3[nH]c4ccccc4c3CCN2C(=O)CCCN2CCCCC2=O)n1` (stereo not drawn), for which the values for the half-maximal effective concentration (EC50) with Plasmodium falciparum [1] and with Plasmodium falciparum [2] were above 12.5 µM and 3.77 µM, respectively. The molecule also showed a cytotoxic concentration (CC50) in data set [3] above 100 µM.

As to `O=C1CC(c2ccccc2)Oc2ccc(F)cc21` (stereo not drawn), the EC50 in the data set on Plasmodium falciparum [1] is above 1.25 µM; with Plasmodium falciparum [2] it was above 0.734 µM. Besides, the CC50 in data set [3] is above 10 µM.

Regarding `CCn1c(SCC(=O)N(c2ccccc2)c2ccccc2)nc2sc3c(c2c1=O)CCN(C)C3`, the half-maximal effective concentration (EC50) is above 5.08 µM in the data set on Plasmodium falciparum [1] and 7.34 µM in the data set with Plasmodium falciparum [2]. Besides, the CC50 in data set [3] was above 100 µM.

For `CC(C)N(CC(=O)Nc1cc(C(C)(C)C)nn1-c1ccc(Cl)c(Cl)c1)C(=O)c1ccc(C(C)(C)C)cc1`, the concentration for a half-maximal effect (EC50) with Plasmodium falciparum [1] came to 6.03 µM; in the data set with Plasmodium falciparum [2], 7.33 µM. The half-maximal cytotoxic concentration (CC50) in data set [3] was above 100 µM.

For the molecule `CCC[n+]1ccc(/C=C/c2ccc(Br)cc2)cc1`, the half-maximal effective concentration (EC50) is 0.645 µM in the data set with Plasmodium falciparum [1] and 0.382 µM in the data set with Plasmodium falciparum [2]. The molecule also came in with a CC50 in data set [3] above 10 µM.

Take `Fc1ccc(N2CCN(c3ncnc4c3cnn4-c3ccccc3)CC2)cc1`: the concentration giving a half-maximal response (EC50) in the data set on Plasmodium falciparum [1] was above 12.5 µM; with Plasmodium falciparum [2], 3.78 µM. In addition, the CC50 in data set [3] was above 100 µM.

Regarding `CC(=O)N(Cc1ccc2c(c1)OCO2)C1CC(=O)N(c2ccccc2)C1=O` (stereo not drawn), the EC50 was above 1.25 µM in the data set with Plasmodium falciparum [1] and above 0.381 µM with Plasmodium falciparum [2]. In data set [3], this molecule registered a 50% cytotoxic concentration (CC50) above 10 µM.

For the molecule `COc1ccc(OCCNC(=O)c2ccccc2Cl)cc1`, the concentration for a half-maximal effect (EC50) in the data set on Plasmodium falciparum [1] was above 1.25 µM; in the data set on Plasmodium falciparum [2], above 0.38 µM. The molecule also displayed a half-maximal cytotoxic concentration (CC50) in data set [3] above 10 µM.

As to `CCOc1ccccc1CN1CCCC(C(=O)N2CCCCCC2)C1` (stereo not drawn), the values for the concentration for a half-maximal effect (EC50) in the data set on Plasmodium falciparum [1] and with Plasmodium falciparum [2] were 4.4 µM and 1.42 µM, respectively. Further, in data set [3], it took 37.4 µM to reach half-maximal cytotoxicity (CC50).

As to `CC(C)CNC(=O)c1cnc(NCCCn2ccnc2)nc1NCC1CCCCC1`, the half-maximal effective concentration (EC50) in the data set on Plasmodium falciparum [1] was 0.278 µM; in the data set with Plasmodium falciparum [2], 0.379 µM. The molecule further displayed a CC50 in data set [3] above 10 µM.

For `O=C(CSc1nc(NCc2ccccc2)c2ccccc2n1)NCc1ccco1`, the EC50 in the data set on Plasmodium falciparum [1] worked out at 0.254 µM; with Plasmodium falciparum [2], 0.378 µM. For the same molecule, in data set [3], the CC50 is above 10 µM.

Consider `C=CCN1CCN(C(c2ccccc2F)c2nnnn2Cc2ccco2)CC1` (stereo not drawn), for which the figures for the EC50 in the data set on Plasmodium falciparum [1] and with Plasmodium falciparum [2] were above 12.5 µM and 2.91 µM, respectively. This molecule also returned a CC50 in data set [3] above 77 µM.

As to `CCN1CCN(c2cc(C)c3cc(NC(=O)C=Cc4ccccc4Cl)ccc3n2)CC1`, the half-maximal effective concentration (EC50) was 0.546 µM with Plasmodium falciparum [1] and 0.697 µM with Plasmodium falciparum [2]. The molecule also registered a CC50 in data set [3] of 18.4 µM.

For `O=C(CN1CCCC1)Nc1ccc(-c2nc3cc(NC(=O)CN4CCCC4)ccc3o2)cc1`, the half-maximal effective concentration (EC50) with Plasmodium falciparum [1] was determined as 2.46 µM; with Plasmodium falciparum [2], 1.36 µM. In addition, in data set [3], the half-maximal cytotoxic concentration (CC50) worked out at 36.2 µM.

In the case of `COc1ccc(NC(=O)CCCCCn2c(SCC(=O)c3ccccc3)nc3ccsc3c2=O)cc1`, the values for the EC50 with Plasmodium falciparum [1] and in the data set with Plasmodium falciparum [2] were 3.12 µM and 3.76 µM, respectively. The molecule further gave a CC50 in data set [3] above 100 µM.

In the case of `N=c1c2c(n(Cc3ccccc3)c3c1CCC3)CCCC2`, the results for the EC50 with Plasmodium falciparum [1] and in the data set on Plasmodium falciparum [2] were 0.426 µM and 0.738 µM, respectively. In data set [3], this molecule yielded a CC50 above 10 µM.

With `Nc1nnc(SCC(=O)Nc2nnc(SCC(=O)Nc3nccs3)s2)s1`, the EC50 was above 1.25 µM in the data set with Plasmodium falciparum [1] and above 0.738 µM in the data set on Plasmodium falciparum [2]. The CC50 in data set [3] was above 10 µM.

As to `Nc1nc(Cl)nc2ccccc12`, the figures for the EC50 with Plasmodium falciparum [1] and in the data set on Plasmodium falciparum [2] were 0.516 µM and 0.737 µM, respectively. Moreover, the CC50 in data set [3] was above 10 µM.

Turning to `CCCCOc1ccc(/C=C/C(=O)NCc2ccco2)cc1`, the figures for the concentration for a half-maximal effect (EC50) with Plasmodium falciparum [1] and in the data set with Plasmodium falciparum [2] were 0.183 µM and 0.744 µM, respectively. In data set [3], this molecule came in with a 50% cytotoxic concentration (CC50) above 10 µM.

On to `C=C(Cl)CSc1nnc(CCNC(=O)c2ccc(C)cc2)n1-c1ccc(F)cc1`, for which the figures for the EC50 in the data set on Plasmodium falciparum [1] and with Plasmodium falciparum [2] were above 12.5 µM and 7.43 µM, respectively. This molecule gave a CC50 in data set [3] above 100 µM.

For the molecule `COc1cc(NC(C)CCCN(Cc2ccc(F)cc2)C(=O)c2ccccc2F)c2ncccc2c1` (stereo not drawn), the results for the EC50 with Plasmodium falciparum [1] and in the data set with Plasmodium falciparum [2] were 0.692 µM and 0.649 µM, respectively. This molecule showed a CC50 in data set [3] above 8.74 µM.

As to `COC(=O)CNC(=O)c1sc2ncn(CC(=O)Nc3ccccc3OC)c(=O)c2c1C`, the results for the EC50 in the data set on Plasmodium falciparum [1] and in the data set on Plasmodium falciparum [2] were above 0.948 µM and above 0.739 µM, respectively. Further, the CC50 in data set [3] is above 10 µM.

With `O=C1C(O)=CC(=Nc2ccc(Cc3ccncc3)cc2)c2ccccc21`, the EC50 in the data set on Plasmodium falciparum [1] was found to be 0.496 µM; with Plasmodium falciparum [2] it was 0.739 µM. Moreover, in data set [3], the CC50 is above 10 µM.

Consider `Cc1ccccc1C(=O)N(CC(=O)Nc1cc(C(C)(C)C)nn1-c1ccccc1Cl)C(C)C`, for which the EC50 in the data set with Plasmodium falciparum [1] was determined as 1.09 µM; with Plasmodium falciparum [2] it was 0.649 µM. Further, in data set [3], the CC50 was above 8.81 µM.

`COC(=O)CSc1nnc2c(n1)[nH]c1c(OC)ccc(Cl)c12`: the concentration giving a half-maximal response (EC50) is 0.642 µM in the data set on Plasmodium falciparum [1] and 0.736 µM in the data set with Plasmodium falciparum [2]. The molecule further displayed a CC50 in data set [3] above 10 µM.

As to `CC(C)c1cccc(C(C)C)c1NC(=O)N(Cc1ccccc1)C(C)c1nc2ccccc2c(=O)n1-c1ccccc1` (stereo not drawn), the half-maximal effective concentration (EC50) turned out to be 1.31 µM in the data set on Plasmodium falciparum [1] and 0.738 µM with Plasmodium falciparum [2]. The cytotoxic concentration (CC50) in data set [3] is above 10 µM.

For the molecule `CCC(C)NC(=O)c1nn(-c2cccc(OC)c2)c(=O)c2ccccc12` (stereo not drawn), the EC50 with Plasmodium falciparum [1] is 1.97 µM; in the data set on Plasmodium falciparum [2] it was 3.81 µM. The same molecule had a CC50 in data set [3] above 100 µM.

`CC1CCC(C(C)C)C(OC(=O)Cn2c(-c3ccccc3)[n+](C)c3ccccc32)C1` (stereo not drawn): the EC50 amounted to 0.376 µM with Plasmodium falciparum [1] and 0.426 µM in the data set with Plasmodium falciparum [2]. In addition, in data set [3], the CC50 was above 11.2 µM.

For the molecule `COc1cc(/C=C/C(=O)Nc2ccc3nc(N4CCN(c5ncccn5)CC4)cc(C)c3c2)cc(OC)c1OC`, the 50% effective concentration (EC50) in the data set with Plasmodium falciparum [1] was 1.33 µM; with Plasmodium falciparum [2], 0.739 µM. Besides, the 50% cytotoxic concentration (CC50) in data set [3] is above 10 µM.

Take `CC(C)C1Oc2cc3oc(=O)ccc3cc2C1=NO` (stereo not drawn): the figures for the half-maximal effective concentration (EC50) with Plasmodium falciparum [1] and in the data set on Plasmodium falciparum [2] were above 1.15 µM and 0.743 µM, respectively. Also, the 50% cytotoxic concentration (CC50) in data set [3] is above 10 µM.

For the molecule `Cc1sc2nc3c4ccccc4c(NCCCN(C)C)nn3c(=O)c2c1C`, the values for the EC50 in the data set with Plasmodium falciparum [1] and with Plasmodium falciparum [2] were 6.6 µM and 2.3 µM, respectively. In data set [3], this molecule had a cytotoxic concentration (CC50) of 60 µM.

As for `CCOC(=O)c1[nH]c(CSC#N)c(C(C)=O)c1C`, the EC50 in the data set on Plasmodium falciparum [1] is above 1.25 µM; in the data set on Plasmodium falciparum [2], above 0.378 µM. Moreover, the CC50 in data set [3] is above 10 µM.

In the case of `c1ccc(C[C@H]2CN(c3ccccc3)CCN2CCNCCOc2ccccc2)cc1`, the concentration giving a half-maximal response (EC50) in the data set with Plasmodium falciparum [1] turned out to be 0.261 µM; with Plasmodium falciparum [2] it was 0.2 µM. The molecule further showed a CC50 in data set [3] above 5.32 µM.

In the case of `CCC(=O)N1CCc2cc(Br)cc(S(=O)(=O)N3CCN(CC)CC3)c21`, the values for the concentration giving a half-maximal response (EC50) in the data set on Plasmodium falciparum [1] and in the data set with Plasmodium falciparum [2] were above 1.63 µM and above 0.744 µM, respectively. The CC50 in data set [3] was above 10 µM.

On to `NC(=O)Oc1ccc(Cc2ccccc2)cc1`, for which the values for the EC50 with Plasmodium falciparum [1] and in the data set on Plasmodium falciparum [2] were 0.843 µM and 0.738 µM, respectively. Further, the cytotoxic concentration (CC50) in data set [3] is above 10 µM.
